Key:
lymph cancer Ramos = assay: anticancer activity in vitro (SRB, MTT), lymph cancer Ramos; type: cell-based; conditions: Homo sapiens, action time about 72 h
Experimental: (§1) Antitumor activity tests in vitro and in vivo are carried out to the parital compounds prepared from the above examples. Wherein the method of SRB, MTT is used in vitro, and the action time is about 72 h. Inhibitory effects of the compounds on the growth of mouse Conlon26 cancer are shown in Table 2, inhibitory effects of the compounds on the growth of mouse S180 sarcoma are shown in Table 3.

colon cancer HT-29 = assay: anticancer activity in vitro (SRB, MTT), colon cancer HT-29; type: cell-based; conditions: Homo sapiens, action time about 72 h
Experimental: as §1

[1] = system: human liver cancer Bel-7402; assay: anticancer activity in vitro (SRB, MTT), human liver cancer Bel-7402; type: cell-based; conditions: action time about 72 h
Experimental: as §1

[2] = system: non-small cell lung cancer; assay: anticancer activity in vitro (SRB, MTT), non-small cell lung cancer; type: cell-based; conditions: action time about 72 h
Experimental: as §1

mouse Colon26 cancer = assay: inhibitory effects on the growth of mouse Colon26 cancer in vivo; conditions: for End body weight / Inhibition rate / Tumor removed body weight / Tumor weight / Initial body weight: Colon26 mice; for Initial body weight: baseline
Experimental: as §1

mouse S180 sarcoma = assay: inhibitory effects on the growth of mouse S180 sarcoma in vivo; conditions: for End body weight / Inhibition rate / Tumor removed body weight / Tumor weight / Initial body weight: S180 mice; for Initial body weight: baseline
Experimental: as §1

[3] = system: four different cancer cells; assay: antitumor activity in vitro, summary over the four cancer cells of Table 1; type: cell-based; conditions: summary of Table 1
Experimental: as §1
Compared with compound I, compound XX has better antitumor effects.

COc1cccc2c1C(=O)c1c(O)c3c(c(O)c1C2=O)C[C@@](O)(C(=O)CO)C[C@@H]3O[C@H]1C[C@H](N)[C@H](O)[C@H](C)O1 [ADR, adriamycin, reference compound]
IC50 (lymph cancer Ramos): 0.19 µM
IC50 (colon cancer HT-29): 0.38 µM
IC50 [1]: 0.02 µM
IC50 [2]: 0.05 µM

O=P1(N(CCCl)CCCl)NCCCO1 (stereo not drawn) [CTX, cyclophosphamide, reference compound]
End body weight (mouse Colon26 cancer; 30 mg/kg i.p.): 20.33 g
Inhibition rate (mouse Colon26 cancer; 30 mg/kg i.p.): 78.14%
Tumor removed body weight (mouse Colon26 cancer; 30 mg/kg i.p.): 19.93 g
Tumor weight (mouse Colon26 cancer; 30 mg/kg i.p.): 0.40 g
Initial body weight (mouse Colon26 cancer; 30 mg/kg i.p.): 20.03 g
End body weight (mouse S180 sarcoma; 30 mg/kg i.p.): 20.31 g
Inhibition rate (mouse S180 sarcoma; 30 mg/kg i.p.): 79.82%
Tumor removed body weight (mouse S180 sarcoma; 30 mg/kg i.p.): 19.85 g
Tumor weight (mouse S180 sarcoma; 30 mg/kg i.p.): 0.46 g
Initial body weight (mouse S180 sarcoma; 30 mg/kg i.p.): 19.65 g

c1cnc2ccc(Nc3nc(N4CCCC4)c4nc[nH]c4n3)cc2c1 [Compound IV]
IC50 (lymph cancer Ramos): 0.67 µM
antitumor activity to four different cancer cells (in words) [3]: the best
End body weight (mouse Colon26 cancer; 100 mg/kg p.o.): 19.32 g
Inhibition rate (mouse Colon26 cancer; 100 mg/kg p.o.): 33.31%
Tumor removed body weight (mouse Colon26 cancer; 100 mg/kg p.o.): 18.10 g
Tumor weight (mouse Colon26 cancer; 100 mg/kg p.o.): 1.22 g
Initial body weight (mouse Colon26 cancer; 100 mg/kg p.o.): 20.09 g
End body weight (mouse Colon26 cancer; 150 mg/kg p.o.): 18.41 g
Inhibition rate (mouse Colon26 cancer; 150 mg/kg p.o.): 54.45%
Tumor removed body weight (mouse Colon26 cancer; 150 mg/kg p.o.): 17.57 g
Tumor weight (mouse Colon26 cancer; 150 mg/kg p.o.): 0.83 g
Initial body weight (mouse Colon26 cancer; 150 mg/kg p.o.): 20.10 g
IC50 (colon cancer HT-29): 0.38 µM
IC50 [1]: 0.67 µM
IC50 [2]: 2.28 µM
End body weight (mouse S180 sarcoma; 100 mg/kg p.o.): 20.77 g
Inhibition rate (mouse S180 sarcoma; 100 mg/kg p.o.): 31.95%
Tumor removed body weight (mouse S180 sarcoma; 100 mg/kg p.o.): 19.22 g
Tumor weight (mouse S180 sarcoma; 100 mg/kg p.o.): 1.55 g
Initial body weight (mouse S180 sarcoma; 100 mg/kg p.o.): 18.99 g
End body weight (mouse S180 sarcoma; 200 mg/kg p.o.): 19.12 g
Inhibition rate (mouse S180 sarcoma; 200 mg/kg p.o.): 55.37%
Tumor removed body weight (mouse S180 sarcoma; 200 mg/kg p.o.): 18.10 g
Tumor weight (mouse S180 sarcoma; 200 mg/kg p.o.): 1.02 g
Initial body weight (mouse S180 sarcoma; 200 mg/kg p.o.): 19.49 g

C=CCNc1nc(Nc2ccc3ncccc3c2)nc2[nH]cnc12 [Compound I]
IC50 (lymph cancer Ramos): 5.78 µM
antitumor activity to four different cancer cells (in words) [3]: higher antitumor activity
inhibitory effects on mouse Colon26 cancer (in words) (mouse Colon26 cancer; 100 mg/kg dosage): better inhibitory effects
End body weight (mouse Colon26 cancer; 100 mg/kg p.o.): 18.15 g
Inhibition rate (mouse Colon26 cancer; 100 mg/kg p.o.): 62.25%
Tumor removed body weight (mouse Colon26 cancer; 100 mg/kg p.o.): 17.46 g
Tumor weight (mouse Colon26 cancer; 100 mg/kg p.o.): 0.69 g
Initial body weight (mouse Colon26 cancer; 100 mg/kg p.o.): 19.47 g
End body weight (mouse Colon26 cancer; 150 mg/kg p.o.): 17.96 g
Inhibition rate (mouse Colon26 cancer; 150 mg/kg p.o.): 76.52%
Tumor removed body weight (mouse Colon26 cancer; 150 mg/kg p.o.): 17.26 g
Tumor weight (mouse Colon26 cancer; 150 mg/kg p.o.): 0.43 g
Initial body weight (mouse Colon26 cancer; 150 mg/kg p.o.): 21.10 g
IC50 (colon cancer HT-29): 8.61 µM
IC50 [1]: 1.58 µM
IC50 [2]: 3.61 µM
inhibitory effects on mouse S180 sarcoma (in words) (mouse S180 sarcoma; 100 mg/kg dosage): better inhibitory effects
End body weight (mouse S180 sarcoma; 100 mg/kg p.o.): 18.32 g
Inhibition rate (mouse S180 sarcoma; 100 mg/kg p.o.): 68.93%
Tumor removed body weight (mouse S180 sarcoma; 100 mg/kg p.o.): 17.61 g
Tumor weight (mouse S180 sarcoma; 100 mg/kg p.o.): 0.71 g
Initial body weight (mouse S180 sarcoma; 100 mg/kg p.o.): 19.74 g
End body weight (mouse S180 sarcoma; 200 mg/kg p.o.): 16.04 g
Inhibition rate (mouse S180 sarcoma; 200 mg/kg p.o.): 70.21%
Tumor removed body weight (mouse S180 sarcoma; 200 mg/kg p.o.): 15.36 g
Tumor weight (mouse S180 sarcoma; 200 mg/kg p.o.): 0.68 g
Initial body weight (mouse S180 sarcoma; 200 mg/kg p.o.): 18.97 g

CNc1nc(Nc2ccc3ncccc3c2)nc2[nH]cnc12 [Compound VII]
IC50 (lymph cancer Ramos): 1.27 µM
antitumor activity to four different cancer cells (in words) [3]: higher antitumor activity
IC50 (colon cancer HT-29): 4.01 µM
IC50 [1]: 0.23 µM
IC50 [2]: 6.65 µM

C=CCN(CC=C)c1nc(Nc2ccc3ncccc3c2)nc2[nH]cnc12 [Compound XIII]
IC50 (lymph cancer Ramos): 3.01 µM
antitumor activity to four different cancer cells (in words) [3]: higher antitumor activity
IC50 (colon cancer HT-29): 1.94 µM
IC50 [1]: 3.46 µM
IC50 [2]: 1.71 µM

CN1CCN(c2nc(Nc3ccc4ncccc4c3)nc3[nH]cnc23)CC1 [Compound XII]
End body weight (mouse Colon26 cancer; 100 mg/kg p.o.): 19.16 g
Inhibition rate (mouse Colon26 cancer; 100 mg/kg p.o.): 35.18%
Tumor removed body weight (mouse Colon26 cancer; 100 mg/kg p.o.): 17.98 g
Tumor weight (mouse Colon26 cancer; 100 mg/kg p.o.): 1.19 g
Initial body weight (mouse Colon26 cancer; 100 mg/kg p.o.): 19.06 g
End body weight (mouse Colon26 cancer; 150 mg/kg p.o.): 18.28 g
Inhibition rate (mouse Colon26 cancer; 150 mg/kg p.o.): 50.16%
Tumor removed body weight (mouse Colon26 cancer; 150 mg/kg p.o.): 17.36 g
Tumor weight (mouse Colon26 cancer; 150 mg/kg p.o.): 0.91 g
Initial body weight (mouse Colon26 cancer; 150 mg/kg p.o.): 19.16 g
End body weight (mouse S180 sarcoma; 100 mg/kg p.o.): 22.58 g
Inhibition rate (mouse S180 sarcoma; 100 mg/kg p.o.): 28.19%
Tumor removed body weight (mouse S180 sarcoma; 100 mg/kg p.o.): 20.94 g
Tumor weight (mouse S180 sarcoma; 100 mg/kg p.o.): 1.63 g
Initial body weight (mouse S180 sarcoma; 100 mg/kg p.o.): 19.22 g
End body weight (mouse S180 sarcoma; 200 mg/kg p.o.): 21.35 g
Inhibition rate (mouse S180 sarcoma; 200 mg/kg p.o.): 46.96%
Tumor removed body weight (mouse S180 sarcoma; 200 mg/kg p.o.): 20.14 g
Tumor weight (mouse S180 sarcoma; 200 mg/kg p.o.): 1.21 g
Initial body weight (mouse S180 sarcoma; 200 mg/kg p.o.): 19.46 g

c1cnc2ccc(Nc3nc(N4CCCCC4)c4nc[nH]c4n3)cc2c1 [Compound XIV]
IC50 (lymph cancer Ramos): 2.93 µM
antitumor activity to four different cancer cells (in words) [3]: higher antitumor activity
IC50 (colon cancer HT-29): 2.22 µM
IC50 [1]: 4.62 µM
IC50 [2]: 1.33 µM

CCN1CCN(c2nc(Nc3ccc4ncccc4c3)nc3[nH]cnc23)CC1 [Compound XV]
IC50 (lymph cancer Ramos): 2.87 µM
antitumor activity to four different cancer cells (in words) [3]: higher antitumor activity
IC50 (colon cancer HT-29): 4.27 µM
IC50 [1]: 5.46 µM
IC50 [2]: 3.36 µM

COc1cc(Nc2nc(NC3CC3)c3nc[nH]c3n2)cc2cccnc12 [Compound XXIII]
IC50 (lymph cancer Ramos): 2.63 µM
IC50 (colon cancer HT-29): 5.72 µM
IC50 [1]: 5.91 µM
IC50 [2]: 13.2 µM

FC(F)(F)c1cc(Nc2nc(NC3CC3)c3nc[nH]c3n2)cc2cccnc12 [Compound XXIV]
IC50 (lymph cancer Ramos): > 100 µM
IC50 (colon cancer HT-29): > 100 µM
IC50 [1]: > 100 µM
IC50 [2]: 11.7 µM

c1cc(Nc2nc(NC3CC3)c3nc[nH]c3n2)ccn1 [Compound XXIX]
IC50 (lymph cancer Ramos): 4.14 µM
IC50 (colon cancer HT-29): 16.8 µM
IC50 [1]: 4.89 µM
IC50 [2]: 7.55 µM

c1cnc2ccc(Nc3nc(N4CCNCC4)c4nc[nH]c4n3)cc2c1 [Compound XXI]
IC50 (lymph cancer Ramos): 2.33 µM
antitumor activity to four different cancer cells (in words) [3]: higher antitumor activity
IC50 (colon cancer HT-29): 2.74 µM
IC50 [1]: 2.33 µM
IC50 [2]: 6.27 µM

c1ccc(Nc2nc(NC3CC3)c3nc[nH]c3n2)nc1 [Compound XXVIII]
IC50 (lymph cancer Ramos): 51.9 µM
IC50 (colon cancer HT-29): 81.4 µM
IC50 [1]: 80.2 µM
IC50 [2]: 61.4 µM

Cc1cc(Nc2nc(NC3CC3)c3nc[nH]c3n2)c2ccccc2n1 [Compound XXV]
IC50 (lymph cancer Ramos): 5.28 µM
IC50 (colon cancer HT-29): 2.25 µM
IC50 [1]: 5.28 µM
IC50 [2]: 13.8 µM

O=[N+]([O-])c1ccc(Nc2nc(NC3CC3)c3nc[nH]c3n2)cc1 [Compound XXX]
IC50 (lymph cancer Ramos): > 100 µM
IC50 (colon cancer HT-29): > 100 µM
IC50 [1]: > 100 µM
IC50 [2]: 11.1 µM

CN(C)c1nc(Nc2ccc3ncccc3c2)nc2[nH]cnc12 [Compound XX]
End body weight (mouse Colon26 cancer; 100 mg/kg p.o.): 18.74 g
Inhibition rate (mouse Colon26 cancer; 100 mg/kg p.o.): 72.31%
Tumor removed body weight (mouse Colon26 cancer; 100 mg/kg p.o.): 18.23 g
Tumor weight (mouse Colon26 cancer; 100 mg/kg p.o.): 0.51 g
Initial body weight (mouse Colon26 cancer; 100 mg/kg p.o.): 19.64 g
End body weight (mouse Colon26 cancer; 150 mg/kg p.o.): 18.68 g
Inhibition rate (mouse Colon26 cancer; 150 mg/kg p.o.): 79.47%
Tumor removed body weight (mouse Colon26 cancer; 150 mg/kg p.o.): 18.31 g
Tumor weight (mouse Colon26 cancer; 150 mg/kg p.o.): 0.38 g
Initial body weight (mouse Colon26 cancer; 150 mg/kg p.o.): 19.90 g
End body weight (mouse S180 sarcoma; 100 mg/kg p.o.): 16.53 g
Inhibition rate (mouse S180 sarcoma; 100 mg/kg p.o.): 72.19%
Tumor removed body weight (mouse S180 sarcoma; 100 mg/kg p.o.): 15.90 g
Tumor weight (mouse S180 sarcoma; 100 mg/kg p.o.): 0.63 g
Initial body weight (mouse S180 sarcoma; 100 mg/kg p.o.): 19.96 g
End body weight (mouse S180 sarcoma; 200 mg/kg p.o.): 16.80 g
Inhibition rate (mouse S180 sarcoma; 200 mg/kg p.o.): 73.38%
Tumor removed body weight (mouse S180 sarcoma; 200 mg/kg p.o.): 16.20 g
Tumor weight (mouse S180 sarcoma; 200 mg/kg p.o.): 0.61 g
Initial body weight (mouse S180 sarcoma; 200 mg/kg p.o.): 19.58 g

CC(CO)Nc1nc(Nc2ccc3ncccc3c2)nc2[nH]cnc12 (stereo not drawn) [Compound X]
IC50 (lymph cancer Ramos): 4.96 µM
IC50 (colon cancer HT-29): 24.2 µM
IC50 [1]: 1.78 µM
IC50 [2]: 12.5 µM

Reference: patent US8580763B2, “2, 6-dinitrogen-containing substituted purine derivatives, the preparation and uses thereof” (Zhanggui Wu, priority 2007, dated 2013)
